Results taken from publication PMC11394972 (International Journal of Molecular Sciences, 2024).

Tested on: MazF-mt3(Δ16–22)
Format: biochemical, Mycobacterium tuberculosis
Conditions: FAM-labeled 13-nt RNA substrate; Figure 4B, Figure S9

MazE-mt3 α3–α4: peptide corresponding to the last two helices (α3-α4, Leu46-Trp82) of MazE-mt3; cocrystallized with MazF-mt3 (PDB 8ZWS) (LTGQIDRALESIHGTDEAEALAVANAYRVLETMDDEW)
inhibitory effect against the loop-truncated MazF-mt3 enzyme compared with the full-length antitoxin: strong inhibitory effect comparable to that of the full-length MazE-mt3
